The subject of experiment [1] is endotoxin.
Experiment [2] concerns endotoxin. The source holds these as a separate data set.

Some results are limits rather than exact numbers.

Consider `O=S(=O)(O)NCl.[Na]` [Chlorosulfamic acid, sodium monochlorosulfamic acid], for which, in the experiment with endotoxin [1], the “Endotoxin concentration compared to the treatments with chloramine, DBNPA and Cl-MIT alone” value is reported as at most 50%. In addition, the “Discharge amount of endotoxin compared to raw water and Control (in words)” value in the experiment on endotoxin [2] was “suppress the discharge amount of endotoxin to be low compared to the raw water and Control”.
For the compound `N#CC(Br)(Br)C(N)=O` [DBNPA, 2,2-dibromo-3-nitrilopropionamide, reference compound], the Endotoxin concentration with endotoxin [1] was found to be 19.1 EU/mL.
On the same count and under the same terms, for Chloramine [reference compound] the value was 31.1 EU/mL.

The values are drawn from patent US20260193116A1, “MEMBRANE TREATMENT METHOD, BIOFOULING INHIBITION METHOD, AND ENDOTOXIN PRODUCTION INHIBITION METHOD IN WATER SYSTEM” (KURITA WATER INDUSTRIES LTD., priority 2022, published 2026).
